In patent US6337340B1, “Carboxylic acids and isosteres of heterocyclic ring compounds having multiple heteroatoms for vision and memory disorders” (GPI NIL Holdings, Inc., priority 1998, dated 2002):
Marks after values point to notes of the source that are not given here.

Columns and labels:
FKBP12 = FKBP12 (Homo sapiens, UniProt P62942); experiment: Ki Test Procedure: inhibition of peptidyl-prolyl isomerase (rotamase) activity, chymotrypsin-coupled assay; type: biochemical; details: apparent Ki; read-out: Ki rotomase
From the text: The inhibition of the prolyl peptidyl cis-trans isomerase activity of FKBP may be measured as an indicator of this affinity.
These values are obtained as apparent Ki's.
The cis-trans isomerization of an alanine-proline bond in a model substrate, N-succinyl-Ala-Ala-Pro-Phe-p-nitroanilide, is monitored spectrophotometrically in a chymotrypsin-coupled assay, which releases para-nitroanilide from the trans form of the substrate. The inhibition of this reaction caused by the addition of different concentrations of inhibitor is determined, and the data is analyzed as a change in first-order rate constant as a function of inhibitor concentration to yield the apparent Ki values.
In a plastic cuvette are added 950 ml of ice cold assay buffer (25 mM HEPES, pH 7.8, 100 mM NaCl), 10 ml of FKBP (2.5 mM in 10 mM Tris-Cl pH 7.5, 100 mM NaCl, 1 mM dithiothreitol), 25 ml of chymotrypsin (50 mg/ml in 1 mM HCl) and 10 ml of test compound at various concentrations in dimethyl sulfoxide. The reaction is initiated by the addition of 5 ml of substrate (succinyl-Ala-Phe-Pro-Phe-para-nitroanilide, 5 mg/ml in 2.35 mM LiCl in trifluoroethanol).
The absorbance at 390 nm versus time is monitored for 90 seconds using a spectrophotometer and the rate constants are determined from the absorbance versus time data files.

[1] = Clearance (Table V comments); type: in vitro ADME
[2] = test system: retinal ganglion cell axons; experiment: Protection of retinal ganglion cell axons from degeneration following optic nerve transection (Table V); type: in vivo, rat; details: ± SEM
From the text: Efficacy of representative compounds from different immunophilin ligand series in protecting retinal ganglion cell axons from degeneration following optic nerve transection is set forth in Table V.

[3] = test system: retinal ganglion cells and optic nerve axons; experiment: In vivo retinal ganglion cell and optic nerve axon tests after optic nerve transection; design: species or system Sprague Dawley rats; details: 90 days after transection
From the text: A second groups received the same neuroimmunogphilin FKBP ligand dose for 28 days.
All eyes and optic nerves stumps were removed.

retinal ganglion cells = experiment: Retinal ischemia by raised intraocular pressure; type: in vivo, rat
From the text: Retinal ganglion cells were retrogradely labeled in adult rate by bilateral injection of fluorogold in their lateral geniculate nuclei. Labeled ganglion cells in the normal rat retina appear as white profiles against the dark background (FIG. 1A). Complete retinal ischemia was produced by infusing normal saline solution into the retinal vitreous cavity of each eye until the intraocular pressure exceeded arterial blood pressure. 28 days after the ischemic episode extensive degeneration of retinal ganglion cell was evidenced by massive reduction in the density of fluorogold labeled cells (FIG. 1B).
Optic nerves from vehicle treated cases examined 28 days after a 1 hour retinal ischemic episode are characterized by a decreased density of optic nerve axons and the appearance of numerous degenerating myelin figures (bright white filled circles).

retina = experiment: Streptozotocin induced diabetes, retinal neovascularization and neuron loss; type: in vivo
[4] = test system: streptozotocin-induced diabetic rat; experiment: Streptozotocin-induced diabetic sensory neuropathy, hot plate and tail flick; type: in vivo, Male Wistar rats; details: lesioned animals treated for 6 weeks at 10 mg/kg s.c.
Procedure: The procedure involved using Male Wistar rats which were given a single injection of streptozotocin (65 mg/kg i.v.). Blood glucose levels were determined weekly for the first three weeks and on the last week of the experiment. Animals were evaluated weekly for signs of sensory neuropathy using the conventional hot plate and tail flick apparatus test procedures.

aged rodents = experiment: Morris watermaze spatial learning and memory in aged rodents; type: in vivo, C57BL/6N-Nia mice; details: daily 10 mg/kg
From the text: The Morris watermaze is widely used for assessing spatial memory formation and retention in experimental animals. The test depends on the animal's ability to utilize spatial visual information in order to locate a submerged escape platform in a water tank. It is important that the tank itself be as devoid of specific visual features as possible—thus, it is always circular in shape, the sides are kept smooth and in uniform dull colors, and the water is rendered opaque with nontoxic watercolor pigment or powdered milk. This is to ensure that the animal navigates only by the use of more distant visual cues, or by the use of intra-maze cues specifically provided by the experimenter.
The animals' path, speed, and swim time are tracked with a ceiling camera for later computerized analysis. Over the course of several successive trials, spatial learning can therefore be defined as a drop of distance swum, or time elapsed, from placement in the tank until escape onto the invisible platform. […]
Retention testing began after 3 weeks of dosing using the same methods as the acquisition phase. Swim Distances (cm) were analyzed in a 7×5 ANOVA including Groups and Blocks (1-5) as factors in the analysis, treating Blocks as a repeated measure.

[5] = test system: retinal ganglion cells and optic nerve axons; experiment: In vivo retinal ganglion cell and optic nerve axon tests after optic nerve transection; design: species or system Sprague Dawley rats; details: for ON axon Count: axonal density multiplied by ON area; for Distal optic nerve myelin basic protein Density: shrinkage: cross sectional area vs sham
[6] = 28 day treatment beginning 8 weeks after onset of streptozotocin induced diabetes
[7] = GPI 1046 first 14 days, 90 days after transection
[8] = ONT, GPI 1046 14 days, 90 days after transection
[9] = ONT, GPI 1046 28 days, 90 days after transection

FKBP12, sequence (P62942 whole entry, species assumed): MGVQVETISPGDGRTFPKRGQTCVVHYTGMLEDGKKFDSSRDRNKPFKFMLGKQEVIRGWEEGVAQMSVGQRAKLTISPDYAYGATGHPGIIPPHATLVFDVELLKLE

For GPI 1046, the Ki (FKBP12) was 7.5 nM, the Clearance [1] was 63.8 µL/min and the “RT97+ RGC axon density 11 days after ON transection (36 ON axon rescued)” value (shortened to “RT97+ RGC axon density 11 days”) [2] was 60.5% ± 3.9 SEM. For the same compound, the “preservation of axons of protected neurons in the proximal stump” value ([3]; Example 14, 10 mg/kg/day s.c. 28 days, RT97 immunohistochemistry) was “preserved the axons of virtually all protected neurons”, the “fascicular pattern of myelin labeling in the distal stump” value ([3]; GPI 1046 first 28 days) was “dramatic protection of the fascicular pattern of myelin labeling” and the “pattern of myelin degeneration in the proximal stump (myelin basic protein immunohistochemistry)” value ([3]; GPI 1046 first 28 days) was “dramatic preservation of the fascicular staining pattern”. The “% surviving RGCs with ON axons” value ([3]; ONT, GPI 1046 28 days) was 81.4%, the “ON head area (% sham)” value ([3]; ONT, GPI 1046 28 days) was 95%* and the “Spared RGC population” value ([3]; ONT, GPI 1046 28 days) was 28,096*. For the same compound, the “increased ON axon density” value ([3]; ONT, GPI 1046 28 days, adjusted for optic nerve diameter) was 5.0X, the “Distal optic nerve myelin basic protein Density: myelin preservation” value ([3]; ONT, GPI 1046 28 days, cross sectional area multiplied by myelin density) was 99% myelin % myelin preservation and the “Proximal optic nerve myelin basic protein Density” value ([3]; ONT, GPI 1046 28 days, ± SEM) was 70 ± 6.3 SEM % recovery. For the same compound, the “protection of fluorogold labeled retinal ganglion cells” value (retinal ganglion cells; 10 mg/kg s.c. 1 hour prior and 10 mg/kg/day for next four days, 28 days after ischemic episode) was “noticeable protection of a large proportion of the vulnerable ganglion cell population”, the “density of degenerating myelin figures in optic nerve” value (retinal ganglion cells; 28 days after 1 hour retinal ischemic episode) was “dramatically decreased the density of degenerating myelin figures” and the “protection of optic nerve axons from ischemic degeneration” value (retinal ganglion cells; 28 days after 1 hour retinal ischemic episode, toluidine blue staining) was “protected the majority of optic nerve axons from degeneration”. For the same compound, the “loss of neurons in the INL and GCL” value (retina; 28 day treatment beginning 8 weeks after onset of diabetes, vs streptozotocin/vehicle controls) was “appeared to decrease the loss of neurons in both the INL and GCL”, the “neovascularization in the PR, ONL, OPL and INL” value (retina; [6]) was “reduced neovascularization” and the “neuronal loss in the ONL” value (retina; [6]) was “did not appear to protect against neuronal loss in the ONL”. The “hot plate and tail flick latency” value [4] was “improvement in latency”, the “spatial memory performance (swim distance, retention testing)” value (aged rodents; aged impaired mice, retention testing after 3 weeks of dosing) was “significantly enhanced spatial memory performance” and the “difference between young and aged impaired GPI-1046 treated groups, retention phase” value (aged rodents; F1.69=3.09, P=0.08) was “no longer any statistically significant difference”. For the same compound, the “ganglion cells population spared (perikaryal neuroprotection)” value ([5]; Example 14, 10 mg/kg/day s.c. 28 days, sacrificed 90 days after transection) was 25%, the “density of myelin in the distal stump” value [5, 7] was “slightly increase the density of myelin” and the “pattern of myelin degeneration in the proximal stump (myelin basic protein immunohistochemistry)” value [5, 7] was “did not alter the pattern of myelin degeneration”. The “shrinkage of the distal stump” value [5, 7] was “did not protect against shrinkage”, the “cross sectional shrinkage of the distal stump” value ([5]; GPI 1046 first 28 days, 90 days after transection) was “prevented cross sectional shrinkage” and the “% RGCs Rescued” value [5, 8] was 5.3%. The “% surviving RGCs with ON axons” value [5, 8] was 33.6%, the “ON head area (% sham)” value [5, 8] was 76% and the “Spared RGC population” value [5, 8] was 20,275. The “increased ON axon density” value ([5]; ONT, GPI 1046 14 days, 90 days after transection, adjusted for optic nerve diameter) was 1.5X, the “ON axon Count” value [5, 8] was 6820 and the “Distal optic nerve myelin basic protein Density: myelin loss” value ([5]; ONT, GPI 1046 14 days, 90 days after transection, cross sectional area multiplied by myelin density) was 47% loss. For the same compound, the “Distal optic nerve myelin basic protein Density: shrinkage” value [5, 8] was 33% shrinkage, the “ON Axon density” value ([5]; ONT, GPI 1046 14 days, 90 days after transection, mean ± SEM RT97 labeled axons in 200 μm × 200 μm region) was 569 ± 23 and the “Proximal optic nerve myelin basic protein Density” value ([5]; ONT, GPI 1046 14 days, 90 days after transection, ± SEM) was 1.6 ± 3.0 SEM % recovery. The “RGC Counts” value ([5]; ONT, GPI 1046 28 days 10 mg/kg/day sc, 90 days after transection, mean density ± SEM of Fluoro-gold labeled RGC in 400 μm × 400 μm gridfields) was 67.9 ± 5.8, the “ON axon Count” value [5, 9] was 22,861* and the “Distal optic nerve myelin basic protein Density: shrinkage” value [5, 9] was 56% less % less shrinkage. The “protection of optic nerve axons” value ([5]; proximal stump, GPI 1046 first 14 days after transection, 90 days) was 5.3%.
For `CCC(C)(C)C(=O)C(=O)N1CCCCC1C(=O)OC(CCc1ccccc1)CCc1ccccc1` (stereo not shown) [E], the Clearance [1] was 41.8 µL/min and the “RT97+ RGC axon density 11 days” value [2] was 56.6% ± 9.4% SEM.
For `O=C(SCCCc1ccccc1)[C@@H]1CCCN1S(=O)(=O)Cc1ccccc1` [C], the Clearance [1] was 31.1 µL/min and the “RT97+ RGC axon density 11 days” value [2] was 60.4% ± 3.1% SEM.
For `CCC(C)(C)C(=O)C(=O)N1CCCC[C@H]1C(=O)SCCC(c1ccccc1)c1ccccc1` [K], the Clearance [1] was 4.5 µL/min.
In the case of `CCC(C)(C)C(=O)C(=O)N1CCC[C@H]1C(=O)SCCC(c1ccccc1)c1ccccc1` [M], the Clearance [1] is reported as 12.5 µL/min and the “RT97+ RGC axon density 11 days” value [2] is reported as −6.3% ± 3.9% SEM.
`CCC(C)(C)C(=O)C(=O)N1CCC[C@H]1C(=O)CCCCc1cccnc1` [J] showed a Clearance [1] of 1.5 µL/min.
In the case of `CCC(C)(C)C(=O)C(=O)N1CCS[C@H]1C(=O)OCCCc1cccnc1` [F], the “RT97+ RGC axon density 11 days” value [2] is reported as 55.1% ± 5.9% SEM.
In the case of `O=C(OCCCCc1ccccc1)[C@@H]1CCCCN1S(=O)(=O)Cc1ccccc1` [D], the “RT97+ RGC axon density 11 days” value [2] is reported as 58.4% ± 6.4% SEM.
With `CCC(C)(C)C(=O)C(=O)N1CCC[C@H]1C(=O)O` [L] the Clearance [1] was 5.2 µL/min and the “RT97+ RGC axon density 11 days” value [2] was 7.8% ± 3.0% SEM.
With `O=C(SCCCc1ccccc1)[C@@H]1CCCN1C(=O)NC12CC3CC(CC(C3)C1)C2` [B] the Clearance [1] was 7 µL/min and the “RT97+ RGC axon density 11 days” value [2] was 100.0% ± 5.2% SEM.
For `CN(C)C(=O)N1CCC[C@H]1C(=O)SCCCc1ccccc1` [N], the Clearance [1] was 21.9 µL/min.
